# Biological target: T1, p110δ/p85α (PI3K p110 delta) (Homo sapiens, UniProt O00329)
# T1 construct: purchased Upstate Group, Millipore; Dundee, UK
# Assay: PI3K isoform inhibition assay (fluorescence polarization PIP3 displacement; alternatively radiometric), p110 delta
# Assay type: biochemical
# Settings: for IC50: PI3K p110 delta binding IC50; for IC50 p110 alpha/IC50 p110 delta: delta/alpha selectivity: ratio of p110 alpha IC50 to p110 delta IC50
# Method: PI3K Isoform Inhibition Assay (p110 Alpha, Beta, Gamma, Delta: α, β, γ, δ)
# PI3K enzymatic activity was assayed by measuring the amount of product phosphatidylinositol 3,4,5-phosphate (PIP3) formed from substrate 4,5 phosphatidylinositol 4,5-phosphate (PIP2) using a fluorescence polarization displacement assay. The decrease in fluorescence polarization of a fluorescent PIP3 probe is measured as it is displaced from a PIP3-binding protein GRP-1 detector by PI3K-catalyzed product. […] The kinase reactions were initiated by the addition of 40 ng/mL p110α/p85α, 300 ng/mL p110β/p85α, 40 ng/mL p110γ, or 40 ng/mL p110δ/p85α (Upstate Group, Millipore; Dundee, UK), and 10 μM PIP2 (Echelon Biosciences) to the wells. […] After 60 minutes of incubation at room temperature to allow equilibration of labeled and unlabeled PIP3 binding, the parallel and perpendicular components of the fluorescence emissions from each sample were measured at an excitation wavelength of 530 nm and an emission wavelength of 590 nm using an Envision fluorescent plate reader with a rhodamine filter (PerkinElmer Life and Analytical Sciences; Wellesley, Mass.). The assay is capable of detecting 0.1-2.0 μM PIP3 product. The IC50 values were obtained by fitting the dose-dependent inhibition data to a 4-parameter equation using Assay Explorer software (MDL, San Ramon, Calif.).
# The Formula I compound was serially diluted in 100% DMSO. The kinase reaction was incubated for 1 h at room temperature, and the reaction was terminated by the addition of PBS. IC50 values were subsequently determined using sigmoidal dose-response curve fit (variable slope).
# HT baculovirus expression system (GIBCO/BRL), and then purified for use in biochemical assays. The four Class I PI 3-kinases are cloned into baculovirus vectors as follows: […]
# T1 sequence (O00329 whole entry): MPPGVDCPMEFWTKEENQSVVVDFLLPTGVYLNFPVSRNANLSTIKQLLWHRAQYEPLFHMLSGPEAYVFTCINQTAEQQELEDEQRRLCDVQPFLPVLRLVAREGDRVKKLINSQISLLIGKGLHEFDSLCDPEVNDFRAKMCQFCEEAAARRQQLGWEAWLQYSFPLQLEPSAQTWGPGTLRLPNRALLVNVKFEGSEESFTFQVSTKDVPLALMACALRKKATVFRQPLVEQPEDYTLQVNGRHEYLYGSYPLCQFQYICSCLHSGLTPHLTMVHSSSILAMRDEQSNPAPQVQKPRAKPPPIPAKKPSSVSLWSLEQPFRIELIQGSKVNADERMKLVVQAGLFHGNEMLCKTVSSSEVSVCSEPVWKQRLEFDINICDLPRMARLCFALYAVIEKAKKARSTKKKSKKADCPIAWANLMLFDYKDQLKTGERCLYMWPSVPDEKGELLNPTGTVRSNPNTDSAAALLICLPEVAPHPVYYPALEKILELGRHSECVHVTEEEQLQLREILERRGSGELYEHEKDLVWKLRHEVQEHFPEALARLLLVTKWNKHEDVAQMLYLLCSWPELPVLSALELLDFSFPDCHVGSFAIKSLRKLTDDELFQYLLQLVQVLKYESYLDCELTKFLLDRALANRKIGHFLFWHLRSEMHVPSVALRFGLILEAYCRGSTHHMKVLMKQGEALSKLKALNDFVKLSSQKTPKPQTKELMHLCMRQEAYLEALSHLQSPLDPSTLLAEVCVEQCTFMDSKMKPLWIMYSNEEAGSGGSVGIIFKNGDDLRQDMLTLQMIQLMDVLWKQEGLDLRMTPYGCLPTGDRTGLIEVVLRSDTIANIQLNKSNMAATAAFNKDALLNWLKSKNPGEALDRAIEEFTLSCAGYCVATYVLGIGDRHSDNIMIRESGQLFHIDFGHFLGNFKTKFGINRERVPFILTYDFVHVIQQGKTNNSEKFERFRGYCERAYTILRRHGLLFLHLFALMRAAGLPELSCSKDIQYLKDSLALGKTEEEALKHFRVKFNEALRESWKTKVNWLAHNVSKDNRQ
# T1 sequence (P27986 whole entry partner): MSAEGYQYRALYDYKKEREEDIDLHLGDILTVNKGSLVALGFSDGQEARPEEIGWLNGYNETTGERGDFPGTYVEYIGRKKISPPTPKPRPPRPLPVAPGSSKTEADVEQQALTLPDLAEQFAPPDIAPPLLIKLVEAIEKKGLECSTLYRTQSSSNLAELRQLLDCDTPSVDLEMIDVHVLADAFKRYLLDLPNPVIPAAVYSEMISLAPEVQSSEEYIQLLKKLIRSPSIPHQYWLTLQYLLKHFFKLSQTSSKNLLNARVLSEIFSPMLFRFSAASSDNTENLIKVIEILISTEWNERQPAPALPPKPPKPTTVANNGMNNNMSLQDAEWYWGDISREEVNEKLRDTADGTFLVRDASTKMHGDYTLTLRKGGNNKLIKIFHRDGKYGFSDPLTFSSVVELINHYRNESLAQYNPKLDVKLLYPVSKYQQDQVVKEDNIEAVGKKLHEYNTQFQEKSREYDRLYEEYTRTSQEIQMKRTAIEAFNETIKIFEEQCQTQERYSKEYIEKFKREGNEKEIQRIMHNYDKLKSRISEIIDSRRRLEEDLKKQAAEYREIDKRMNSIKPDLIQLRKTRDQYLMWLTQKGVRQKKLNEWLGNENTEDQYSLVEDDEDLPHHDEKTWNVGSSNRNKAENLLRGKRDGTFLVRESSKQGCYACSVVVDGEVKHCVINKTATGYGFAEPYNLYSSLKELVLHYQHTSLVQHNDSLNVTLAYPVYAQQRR
Compound,IC50 [nM],IC50 p110 alpha/IC50 p110 delta
"c1cc(-c2nc(N3CCOCC3)c3sc(CN4CCC(N5CCOCC5)CC4)cc3n2)c2ccncc2c1 [Example 101, 4-(1-((2-(isoquinolin-5-yl)-4-morpholinothieno[3,2-d]pyrimidin-6-yl)methyl)piperidin-4-yl)morpholine]",101,53
"Cn1c(CN2CCC(C(C)(C)O)CC2)nc2c(N3CCOCC3)nc(-c3cnc(N)c4ccccc34)nc21 [Example 115, 2-(1-((2-(1-aminoisoquinolin-4-yl)-9-methyl-6-morpholino-9H-purin-8-yl)methyl)piperidin-4-yl)propan-2-ol]",7.2,34
"Cn1c(CN2CCC(C(C)(C)O)CC2)nc2c(N3CCOCC3)nc(-c3n[nH]c4ccccc34)nc21 [Example 162, 2-(1-((2-(1H-indazol-3-yl)-9-methyl-6-morpholino-9H-purin-8-yl)methyl)piperidin-4-yl)propan-2-ol]",14.6,191
"COC(C)(C)C1CCN(Cc2nc3c(N4CCOCC4)nc(-c4c(C)oc5ccccc45)nc3n2C)CC1 [Example 200, 4-(8-((4-(2-methoxypropan-2-yl)piperidin-1-yl)methyl)-9-methyl-2-(2-methylbenzofuran-3-yl)-9H-purin-6-yl)morpholine]",22.2,54
"Cc1oc2ccccc2c1-c1nc(N2CCOCC2)c2nc(CN3CCN(C(C)(C)C(N)=O)CC3)sc2n1 [Example 211, 2-methyl-2-(4-((5-(2-methylbenzofuran-3-yl)-7-morpholinothiazolo[5,4-d]pyrimidin-2-yl)methyl)piperazin-1-yl)propanamide]",9.7,>300
"CC(C)(C(N)=O)N1CCN(Cc2nc3nc(-c4cccc5nccn45)nc(N4CCOCC4)c3s2)CC1 [Example 248, 2-(4-((5-(imidazo[1,2-a]pyridin-5-yl)-7-morpholinothiazolo[4,5-d]pyrimidin-2-yl)methyl)piperazin-1-yl)-2-methylpropanamide]",42.9,35
"CCc1nc2ccccc2n1-c1nc(N2CCOCC2)c2nc(CCN3CCOCC3(C)C)n(C)c2n1 [Example 535, 4-(2-(2-(2-ethyl-1H-benzo[d]imidazol-1-yl)-9-methyl-6-morpholino-9H-purin-8-yl)ethyl)-3,3-dimethylmorpholine]",9.9,49
"CCc1nc2ccccc2n1-c1nc(N2CCOCC2)c2nc(CC(=O)N3CCC(C(C)(C)O)CC3)sc2n1 [Example 549, 2-(5-(2-ethyl-1H-benzo[d]imidazol-1-yl)-7-morpholinothiazolo[5,4-d]pyrimidin-2-yl)-1-(4-(2-hydroxypropan-2-yl)piperidin-1-yl)ethanone]",9.4,14
"CC(C)c1nc2ccccc2n1-c1nc(N2CCOCC2)c2nc(-c3cccnc3)n(C)c2n1 [Example 676, 4-(2-(2-isopropyl-1H-benzo[d]imidazol-1-yl)-9-methyl-8-(pyridin-3-yl)-9H-purin-6-yl)morpholine]",13.6,14
"COc1cccc(-c2nc3c(N4CCOCC4)nc(-n4c(C(C)C)nc5ccccc54)nc3n2C)c1 [Example 683, 4-(2-(2-isopropyl-1H-benzo[d]imidazol-1-yl)-8-(3-methoxyphenyl)-9-methyl-9H-purin-6-yl)morpholine]",31.7,23
"CCc1nc2ccccc2n1-c1nc(N2CCOCC2)c2nc(CN3CCC(C(C)(C)O)CC3)[nH]c2n1 [Example 701, 2-(1-((2-(2-ethyl-1H-benzo[d]imidazol-1-yl)-6-morpholino-9H-purin-8-yl)methyl)piperidin-4-yl)propan-2-ol]",,50

# Now from value to molecule:
IC50 [nM],IC50 p110 alpha/IC50 p110 delta,Compound
1.8,29,"Cc1c(CN2CCN(C(C)(C)C(N)=O)CC2)sc2c(N3CCOCC3)nc(-c3cncc4[nH]ccc34)nc12 [Example 112, 2-methyl-2-(4-((7-methyl-4-morpholino-2-(1H-pyrrolo[2,3-c]pyridin-4-yl)thieno[3,2-d]pyrimidin-6-yl)methyl)piperazin-1-yl)propanamide]"
1.3,32,"CC(C)(C(N)=O)N1CCN(Cc2nc3c(N4CCOCC4)nc(-c4cncc5[nH]ccc45)nc3s2)CC1 [Example 131, 2-methyl-2-(4-((7-morpholino-5-(1H-pyrrolo[2,3-c]pyridin-4-yl)thiazolo[5,4-d]pyrimidin-2-yl)methyl)piperazin-1-yl)propanamide]"
6.9,30,"CN(C)C1CCN(Cc2cc3nc(-n4ccc5cnccc54)nc(N4CCOCC4)c3s2)CC1 [Example 149, N,N-dimethyl-1-((4-morpholino-2-(1H-pyrrolo[3,2-c]pyridin-1-yl)thieno[3,2-d]pyrimidin-6-yl)methyl)piperidin-4-amine]"
1.37,157,"CCc1nc2ccccc2n1-c1nc(N2CCOCC2)c2nc(CN3CCN(C(C)(C)CO)CC3)[nH]c2n1 [Example 489, 2-(4-((2-(2-ethyl-1H-benzo[d]imidazol-1-yl)-6-morpholino-9H-purin-8-yl)methyl)piperazin-1-yl)-2-methylpropan-1-ol]"
6.3,75,"Cn1c(CN2CC(C3CCOCC3)C2)nc2c(N3CCOCC3)nc(-n3c(C4CC4)nc4ccccc43)nc21 [Example 499, 4-(2-(2-cyclopropyl-1H-benzo[d]imidazol-1-yl)-9-methyl-8-((3-(tetrahydro-2H-pyran-4-yl)azetidin-1-yl)methyl)-9H-purin-6-yl)morpholine]"
0.589,140,"CCc1nc2ccccc2n1-c1nc(N2CCOCC2)c2nc(CC3CN(C4CCS(=O)(=O)CC4)C3)n(C)c2n1 [Example 501, 4-(2-(2-ethyl-1H-benzo[d]imidazol-1-yl)-9-methyl-8-((1-(tetrahydro-2H-(1,1-dioxo)-thiopyran-4-yl)azetidin-3-yl)methyl)-9H-purin-6-yl)morpholine]"
1.45,150,"CCc1nc2ccccc2n1-c1nc(N2CCOCC2)c2nc(CN3C[C@@H]4C[C@H]3CN4C(C)(C)CO)n(C)c2n1 [Example 521, 2-((1S,4S)-5-((2-(2-ethyl-1H-benzo[d]imidazol-1-yl)-9-methyl-6-morpholino-9H-purin-8-yl)methyl)-2,5-diazabicyclo[2.2.1]heptan-2-yl)-2-methylpropan-1-ol]"

# Reference: US8394796B2, “Bicyclic pyrimidine PI3K inhibitor compounds selective for P110 delta, and methods of use” (Genentech, Inc., priority 2009, dated 2013)
